Experimental data reported in US20040043939A1, “Peptide-based gemini compounds” (SmithKline Beecham p.l.c., priority 1997, published 2004).
Numbered stars: 1 amine (or outer) side, 2 acyl side, 3 side chain; on linkers, the order of the positions; unused ones are H or OH. Bridge positions count the residues as written; N and C are the ends. Peptide text beside a SMILES is read from it. I, II: the chains in the order shown. * marks the point of attachment. NH(CH2)11CH3 = CCCCCCCCCCCCN*; CH2CH2 = C(C[*:2])[*:1]

Legend:
Assay type in all cases: cell-based
CHO-K1 cells [1] = assay: Transfection of luciferase plasmid into CHO-K1 cells with gemini compounds in combination with supplements (DOPE, PLUS)
Description: The transfection ability of the gemini compounds could be further enhanced by the addition of a neutral carrier, for example, dioleyl phosphatidylethanolamine (DOPE) (Farhood, H., et al (1985) Biochim. Biophys. Acta 1235 289) or a complexing reagent, for example, PLUS compound (Life Technologies Inc.). […] Transfection mediated by compound 55 with DOPE in a 2:1 ratio and the addition of 11.6 ul of PLUS compound lead to a mean count of 6.5×10^5 cps representing a 12-fold increase of luciferase activity in comparison to compound 55 alone. Incubation of the PLUS compound with the DNA and combination with compound 55 alone also lead to a 4-fold increase.

CHO-K1 cells [2] = assay: Transfection of luciferase plasmid into CHO-K1 cells, luciferase reporter gene assay; conditions: for Luciferase activity, mean count at most effective (peak) concentration: 5 ug luciferase plasmid, about 48 h post transfection; for Concentration of peak transfection efficiency (most effective concentration): luciferase plasmid
Description: CHO-K1 cells (ATCC: CRL-9618) were seeded into T25-culture flasks (Corning-Costar Buckinghamshire, UK), at 7×10^5 cells per flask, 24 hours prior to transfection. The CHO-K1 cells were seeded in 5 ml MEM alpha medium with ribonucleosides and deoxyribonucleosides and supplemented with 1× L-glutamine and 10% v/v foetal bovine serum (complete medium). The cells were grown at 37° C. in 5% CO2 in a humidified atmosphere.
For transfection, 5 ug DNA (luciferase control plasmid) was incubated with the gemini compounds in water (final volume 400 μl). The peptide-based gemini compounds were made up at 1 mg ml^−1 in tissue culture grade water and then diluted to the appropriate concentration to a total volume of 200 ul. Following a 30 minute room temperature incubation, 2.6 ml OPTI-MEM® medium was added and the solution placed on the cells. Following an overnight incubation at 37° C., the transfection solution was replaced with complete medium and the cells incubated at 37° C. 24 hours post transfection the cells were detached from the flask and seeded into 96-well plates at a density of 0.5×10^5 cells per well and incubated for a further 24 hours at 37° C. Luciferase reporter gene assays were performed according to the manufacturers instructions (Roche Diagnostics, Mannheim, Germany) approximately 48 hours post transfection. The plates were left for a 15 minutes adaption period in the dark before counting for 60 seconds in a TopCount NXT counter (Canberra Packard). An average of eight wells were counted per transfection.
Control transfections were set up with no DNA, an anionic gemini compound and the commercially available reagent LipofectAmine PLUS™.

HEK293 cells = assay: Transfection of luciferase plasmid into HEK293 cells, luciferase activity assay; conditions: for Efficiency in facilitating transfection of the luciferase plasmid: at concentrations above 150 ug/ml; for Luciferase activity, mean count at most effective (peak) concentration: luciferase control plasmid 6 ug, mean of 4 independent counts; for Concentration of peak transfection efficiency (most effective concentration): luciferase plasmid
Description: All tissue culture reagents were obtained from Life Technologies Inc. HEK 293 cells were seeded at 2-3×10^5 cells per well in Nunc six-well culture plates, 24 hours prior to transfection. The cells were seeded in 2 mls Dulbeccos Modified Eagle medium containing Earles salts and supplemented with 10% v/v foetal bovine serum (=complete medium). The cells were grown at 37° C. in 5% CO2 in a humidified atmosphere. 6 ug DNA (“luciferase control plasmid” from Promega Corp.) were dissolved in 100 ul serum free medium (OPTI-MEMO). The peptide-based gemini compounds were made up at 1 mg/ml in tissue culture grade water and then diluted in OPTI-MEM® to the appropriate concentration to a final volume of 100 ul. The DNA and gemini solutions were mixed (to a total volume of 200 ul; final concentrations of 5, 25, 50, 100, 150, 200, 250 and 300 ug/ml) and left at room temperature for 15 minutes. The DNA/gemini mix was placed onto the cells in each well and left in contact for 18-20 hours. The cells were then washed twice with phophate buffered saline prior to 1 ml of fresh complete medium being added. Cells were incubated for a further 24 hours prior to lysis and luciferase activity assayed.
All luciferase activity assays were performed using the Canberra Packard (Berkshire, UK) Luclite kit according to the manufacturer's instructions with the exception that the cells in each well were resuspended in 1 ml lysis buffer and 100 ul aliquots mixed with 100 ul of the luciferase substrate. The reaction mix was left for a 15 minutes adaptation period in the dark before counting for 5 minutes in a Top Count scintillation counter. Luciferase activity is measured as counts per second (CPS) from the scintillation counter. Four independent counts were taken per well.
Control transfections were set up with no DNA, CaPO4, an anionic gemini compound (1) and the commercially available lipofection reagents LipofectAmine™ and Lipotaxi™ at the manufacturers recommended concentrations (10, 25, 50, 75, 125 ug/ml and 175, 250, 325, 400 and 500 ug/ml respectively).

[3] = compound 55 with DOPE 2:1 plus 11.6 ul PLUS compound

Molecule | Increase of luciferase activity (CHO-K1 cells [1]; PLUS compound incubated with the DNA, combined with compound 55 alone (no DOPE)) [fold] | Increase of luciferase activity (CHO-K1 cells [1]; compound 55 and DOPE at 2:1 ratio) [fold] | Increase of luciferase activity in comparison to compound 55 alone (CHO-K1 cells [1]; [3]) [fold] | Luciferase activity, mean count (CHO-K1 cells [1]; [3]) | Efficiency in facilitating transfection of the luciferase plasmid (CHO-K1 cells [2]) | Luciferase activity, mean count at most effective (peak) concentration (CHO-K1 cells [2]) | Concentration of peak transfection efficiency (most effective concentration) (CHO-K1 cells [2]) [µM] | Efficiency in facilitating transfection of the luciferase plasmid (HEK293 cells) | Luciferase activity, mean count at most effective (peak) concentration (HEK293 cells) | Concentration of peak transfection efficiency (most effective concentration) (HEK293 cells) [µg/mL] | Luciferase activity count, control transfection (HEK293 cells; CaPO4 transfection)
CCCCCCCCCCCCCNC(=O)C(CO)NC(=O)C(CSCCSCC(NC(=O)C(N)CCCCNC(=O)C(N)CCCCN)C(=O)NC(CO)C(=O)NCCCCCCCCCCCC)NC(=O)C(N)CCCCNC(=O)C(N)CCCCN.Cl.Cl.Cl.Cl (centres unmarked) [Compound 55] | 4 | 9 | 12 | 6.5×10^5 cps | very efficient agents | about 2.4×10^5 cps | 30 | very efficient agents | about 45,000 cps | 300 | 
CCCCCCCCCCCCNC(=O)C(CO)NC(=O)C(CSCCSCC(NC(=O)C(CCCCNC(=O)C(N)CCCCN)NC(=O)C(N)CCCCN)C(=O)NC(CO)C(=O)NCCCCCCCCCCCC)NC(=O)C(CCCCNC(=O)C(N)CCCCN)NC(=O)C(N)CCCCN.Cl.Cl.Cl.Cl.Cl.Cl.Cl.Cl (centres unmarked) [Compound 56] (I: H-KK(Lys)CS-{NH(CH2)11CH3} / II: H-KK(Lys)CS-{NH(CH2)11CH3}; linker I:3-II:3 via CH2CH2; configuration not given here) |  |  |  |  | very efficient agents | about 1.9×10^5 cps | 40 | very efficient agents | about 50,000 cps | 200 | 
CaPO4 [reference compound] |  |  |  |  |  |  |  |  |  |  | about 2,000 cps
